Results published in PubChem BioAssay AID330 (DTP/NCI, 2004).
“And” between values parts separate entries of the source, which are not always exact repeats. Equal values may be shown once. Inconclusive results and toxic doses are left out.

Test system: P388 leukemia ip, CD2F1 mice, survival T/C
Test: NCI In Vivo Anticancer Drug Screen. Data for tumor model P388 Leukemia (intraperitoneal) in CD2F1 (CDF1) mice
Conditions: endpoint: median survival time, higher = longer survival
How it was run: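 Mice carrying the transplanted tumor received test compound or vehicle. Survival was recorded in each group, and the value is the treated-group measurement divided by that of the vehicle-treated control group.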

[1] = dose: 30.0 mg/kg/injection, schedule: Q01DX005 (ip), vehicle: saline with Tween-80
[2] = dose: 60.0 mg/kg/injection, schedule: Q01DX005 (ip), vehicle: saline with Tween-80
[3] = dose: 120.0 mg/kg/injection, schedule: Q01DX005 (ip), vehicle: saline with Tween-80
[4] = dose: 25.0 mg/kg/injection, schedule: Q01DX009 (ip), vehicle: Klucel (hydroxypropylcellulose) (HPC)
[5] = dose: 50.0 mg/kg/injection, schedule: Q01DX005 (ip), vehicle: saline with Tween-80
[6] = dose: 200.0 mg/kg/injection, schedule: Q01DX005 (ip), vehicle: saline with Tween-80
[7] = dose: 50.0 mg/kg/injection, schedule: Q01DX009 (ip), vehicle: saline

O=NNc1ncnc2c1ncn2Cc1ccccc1
T/C (dose: 3.12 mg/kg/injection, schedule: Q01DX009 (ip), vehicle: water): 103 % of control | T/C (dose: 6.25 mg/kg/injection, schedule: Q01DX009 (ip), vehicle: water): 100 % of control | T/C (dose: 12.5 mg/kg/injection, schedule: Q01DX009 (ip), vehicle: water): 112 % of control | T/C (dose: 25.0 mg/kg/injection, schedule: Q01DX009 (ip), vehicle: water): 112 % of control | T/C (dose: 50.0 mg/kg/injection, schedule: Q01DX009 (ip), vehicle: water): 112 % of control

ClC(Cl)(Cl)C(=NNc1ccccc1)C(Cl)(Cl)Cl
T/C (dose: 15.0 mg/kg/injection, schedule: Q01DX005 (ip), vehicle: saline with Tween-80): 104 % of control | T/C [1]: 104 % of control | T/C [2]: 105 % of control and 110 % of control

O=S(=O)(F)C(Br)(Br)S(=O)(=O)F
T/C (dose: 50.0 mg/kg/injection, schedule: Q01DX005 (ip), vehicle: Klucel (hydroxypropylcellulose) (HPC)): 97 % of control | T/C (dose: 100.0 mg/kg/injection, schedule: Q01DX005 (ip), vehicle: Klucel (hydroxypropylcellulose) (HPC)): 97 % of control

S=c1oc2cccc3c2n1CCC3
T/C (dose: 100.0 mg/kg/injection, schedule: Q04DX003 (ip), vehicle: saline with Tween-80): 95 % of control | T/C (dose: 200.0 mg/kg/injection, schedule: Q04DX003 (ip), vehicle: saline with Tween-80): 104 % of control | T/C (dose: 400.0 mg/kg/injection, schedule: Q04DX003 (ip), vehicle: saline with Tween-80): 100 % of control

CCCC/[N+]([O-])=N/O
T/C (dose: 3.0 mg/kg/injection, schedule: Q01DX005 (ip), vehicle: Klucel (hydroxypropylcellulose) (HPC)): 103 % of control | T/C (dose: 6.0 mg/kg/injection, schedule: Q01DX005 (ip), vehicle: Klucel (hydroxypropylcellulose) (HPC)): 95 % of control | T/C (dose: 12.0 mg/kg/injection, schedule: Q01DX005 (ip), vehicle: Klucel (hydroxypropylcellulose) (HPC)): 100 % of control | T/C (dose: 24.0 mg/kg/injection, schedule: Q01DX005 (ip), vehicle: Klucel (hydroxypropylcellulose) (HPC)): 101 % of control

CCn1cc(C(=O)O)c(=O)c2ccc(-c3cn[nH]c3C)nc21
T/C (dose: 50.0 mg/kg/injection, schedule: Q04DX003 (ip), vehicle: suspension in saline): 106 % of control | T/C (dose: 100.0 mg/kg/injection, schedule: Q04DX003 (ip), vehicle: suspension in saline): 107 % of control | T/C (dose: 200.0 mg/kg/injection, schedule: Q04DX003 (ip), vehicle: suspension in saline): 106 % of control

c1ccc2c(NCCCCCCCCCCCCNc3c4ccccc4nc4ccccc34)c3ccccc3nc2c1
T/C (dose: 1.25 mg/kg/injection, schedule: Q## X009 (ip), vehicle: lactic acid): 100 % of control and 96 % of control | T/C (dose: 2.5 mg/kg/injection, schedule: Q## X009 (ip), vehicle: lactic acid): 99 % of control and 92 % of control | T/C (dose: 5.0 mg/kg/injection, schedule: Q## X009 (ip), vehicle: lactic acid): 107 % of control and 110 % of control

C[C@@H]1CC=C[C@@H](NC(=O)OCc2ccccc2)[C@H]1C=O
T/C [2]: 103 % of control | T/C [3]: 99 % of control | T/C (dose: 240.0 mg/kg/injection, schedule: Q01DX005 (ip), vehicle: saline with Tween-80): 98 % of control

Clc1nc(-c2ccccc2)ns1
T/C [4]: 86 % of control | T/C (dose: 50.0 mg/kg/injection, schedule: Q01DX009 (ip), vehicle: Klucel (hydroxypropylcellulose) (HPC)): 106 % of control | T/C (dose: 100.0 mg/kg/injection, schedule: Q01DX009 (ip), vehicle: Klucel (hydroxypropylcellulose) (HPC)): 102 % of control | T/C (dose: 200.0 mg/kg/injection, schedule: Q01DX009 (ip), vehicle: Klucel (hydroxypropylcellulose) (HPC)): 104 % of control

CC(=O)CC1CC2(CCC1=O)OCCO2 (configuration not stated)
T/C (dose: 100.0 mg/kg/injection, schedule: Q01DX009 (ip), vehicle: saline sonified): 100 % of control | T/C (dose: 200.0 mg/kg/injection, schedule: Q01DX009 (ip), vehicle: saline sonified): 100 % of control | T/C (dose: 400.0 mg/kg/injection, schedule: Q01DX009 (ip), vehicle: saline sonified): 100 % of control

CCCCCC(=O)NCC(=O)NC1C(C)OC(Nc2ncnc3nc[nH]c23)C(O)C1O (configuration not stated)
T/C (dose: 0.5 mg/kg/injection, schedule: Q01DX009 (ip), vehicle: other): 99 % of control | T/C (dose: 1.0 mg/kg/injection, schedule: Q01DX009 (ip), vehicle: other): 102 % of control | T/C (dose: 2.0 mg/kg/injection, schedule: Q01DX009 (ip), vehicle: other): 106 % of control | T/C (dose: 4.0 mg/kg/injection, schedule: Q01DX009 (ip), vehicle: other): 106 % of control | T/C (dose: 8.0 mg/kg/injection, schedule: Q01DX009 (ip), vehicle: other): 99 % of control

O=C1c2ccccc2C(=O)c2c1cc1cccccc2-1
T/C (dose: 3.13 mg/kg/injection, schedule: Q01DX005 (ip), vehicle: saline with Tween-80): 99 % of control | T/C (dose: 6.25 mg/kg/injection, schedule: Q01DX005 (ip), vehicle: saline with Tween-80): 97 % of control | T/C (dose: 12.5 mg/kg/injection, schedule: Q01DX005 (ip), vehicle: saline with Tween-80): 90 % of control and 91 % of control | T/C [5]: 89 % of control | T/C [6]: 95 % of control

O=C1CC(=O)OCCOCCOCCO1
T/C [7]: 98 % of control | T/C (dose: 100.0 mg/kg/injection, schedule: Q01DX009 (ip), vehicle: saline): 117 % of control | T/C (dose: 200.0 mg/kg/injection, schedule: Q01DX009 (ip), vehicle: saline): 101 % of control

O=C(O)CC(=O)O.[NH-]CC[NH-].[Pt+2]
T/C (dose: 6.25 mg/kg/injection, schedule: Q04DX002 (ip), vehicle: saline with Tween-80): 111 % of control | T/C (dose: 25.0 mg/kg/injection, schedule: Q01DX009 (ip), vehicle: saline): 211 % of control | T/C (dose: 25.0 mg/kg/injection, schedule: Q04DX002 (ip), vehicle: saline with Tween-80): 158 % of control | T/C [7]: 94 % of control

O=[N+]([O-])c1ccc(Sc2ncnc3nc[nH]c23)c2nonc12
T/C (dose: 0.78 mg/kg/injection, schedule: Q01DX009 (ip), vehicle: Klucel (hydroxypropylcellulose) (HPC)): 105 % of control | T/C (dose: 1.56 mg/kg/injection, schedule: Q01DX009 (ip), vehicle: Klucel (hydroxypropylcellulose) (HPC)): 109 % of control and 86 % of control | T/C (dose: 3.12 mg/kg/injection, schedule: Q01DX009 (ip), vehicle: Klucel (hydroxypropylcellulose) (HPC)): 99 % of control and 104 % of control | T/C (dose: 6.25 mg/kg/injection, schedule: Q01DX009 (ip), vehicle: Klucel (hydroxypropylcellulose) (HPC)): 105 % of control and 98 % of control | T/C (dose: 12.5 mg/kg/injection, schedule: Q01DX009 (ip), vehicle: Klucel (hydroxypropylcellulose) (HPC)): 113 % of control and 116 % of control and 122 % of control | T/C [4]: 112 % of control

NC(=S)/N=C(/N)NC(=O)c1ccccc1
T/C (dose: 25.0 mg/kg/injection, schedule: Q01DX009 (ip), vehicle: saline with Tween-80): 87 % of control | T/C (dose: 50.0 mg/kg/injection, schedule: Q01DX009 (ip), vehicle: saline with Tween-80): 87 % of control | T/C (dose: 100.0 mg/kg/injection, schedule: Q01DX009 (ip), vehicle: saline with Tween-80): 86 % of control | T/C (dose: 200.0 mg/kg/injection, schedule: Q01DX009 (ip), vehicle: saline with Tween-80): 110 % of control

Cc1ccc(S(=O)(=O)C23N=NC(C)(C)C2C2CC3C3CN=NC32)cc1 (configuration not stated)
T/C (dose: 100.0 mg/kg/injection, schedule: Q01DX001 (ip), vehicle: Klucel (hydroxypropylcellulose) (HPC)): 103 % of control | T/C (dose: 200.0 mg/kg/injection, schedule: Q01DX001 (ip), vehicle: Klucel (hydroxypropylcellulose) (HPC)): 109 % of control | T/C (dose: 400.0 mg/kg/injection, schedule: Q01DX001 (ip), vehicle: Klucel (hydroxypropylcellulose) (HPC)): 102 % of control

O=C1OC(=O)C2C1C1c3ccccc3C2(O)c2ccccc21 (configuration not stated)
T/C [1]: 106 % of control | T/C [2]: 100 % of control | T/C [3]: 94 % of control

CC1(C(=O)O)C2C=CC3(CN(c4ccccc4)C(=O)C31c1ccccc1)O2 (configuration not stated)
T/C (dose: 60.0 mg/kg/injection, schedule: Q01DX005 (ip), vehicle: Klucel (hydroxypropylcellulose) (HPC)): 89 % of control | T/C (dose: 120.0 mg/kg/injection, schedule: Q01DX005 (ip), vehicle: Klucel (hydroxypropylcellulose) (HPC)): 100 % of control | T/C (dose: 240.0 mg/kg/injection, schedule: Q01DX005 (ip), vehicle: Klucel (hydroxypropylcellulose) (HPC)): 102 % of control

CC(=O)c1c(O)c(C)c(O)c2c1OC1=CC(=O)c3c(C)noc3C12C (configuration not stated)
T/C (dose: 12.5 mg/kg/injection, schedule: Q01DX009 (ip), vehicle: gum acacia): 102 % of control | T/C (dose: 25.0 mg/kg/injection, schedule: Q01DX009 (ip), vehicle: gum acacia): 118 % of control | T/C (dose: 50.0 mg/kg/injection, schedule: Q01DX009 (ip), vehicle: gum acacia): 101 % of control and 112 % of control and 113 % of control | T/C (dose: 100.0 mg/kg/injection, schedule: Q01DX009 (ip), vehicle: gum acacia): 114 % of control and 118 % of control and 120 % of control | T/C (dose: 200.0 mg/kg/injection, schedule: Q01DX009 (ip), vehicle: gum acacia): 104 % of control and 105 % of control

CCCOC(=O)c1ccc2nc(NC(=O)OC)[nH]c2c1
T/C [5]: 96 % of control | T/C (dose: 100.0 mg/kg/injection, schedule: Q01DX005 (ip), vehicle: saline with Tween-80): 91 % of control | T/C [6]: 97 % of control
